Numbered stars: 1 amine (or outer) side, 2 acyl side, 3 side chain; on linkers, the order of the positions; unused ones are H or OH. Bridge positions count the residues as written; N and C are the ends. Square brackets hold non-standard residues; d marks the D form. Peptide text beside a SMILES is read from it. I, II: the chains in the order shown. * marks the point of attachment. NOTA = O=C(O)CN1CCN(CC(=O)O)CCN(CC(=O)*)CC1; X1 = O=C(CCC(=O)[*:2])NCCOCCOCC(=O)[*:1]; 2Thi = N[C@@H](Cc1cccs1)C(=O)O; Nle = CCCC[C@H](N)C(=O)O; AEEA = NCCOCCOCC(=O)O; βAla = NCCC(=O)O
How the values were obtained:
GRPR [1] = molecular target: T1, GRPR (Mus musculus, UniProt P21729); test: Biodistribution in Balb/c mice (in vivo GRPR-targeting efficacy); conditions: 64Cu-labeled peptide, 30 min p.i.; for Pancreas uptake: female Balb/c mice
T1 construct: using the pancreas, a GRPR-rich tissue, as a target for specific receptor-mediated accumulation; from tissue; host or cells: Female Balb/c mice, in vivo; organs (pancreas and others) collected 30 min p.i
T1 sequence (P21729 whole entry): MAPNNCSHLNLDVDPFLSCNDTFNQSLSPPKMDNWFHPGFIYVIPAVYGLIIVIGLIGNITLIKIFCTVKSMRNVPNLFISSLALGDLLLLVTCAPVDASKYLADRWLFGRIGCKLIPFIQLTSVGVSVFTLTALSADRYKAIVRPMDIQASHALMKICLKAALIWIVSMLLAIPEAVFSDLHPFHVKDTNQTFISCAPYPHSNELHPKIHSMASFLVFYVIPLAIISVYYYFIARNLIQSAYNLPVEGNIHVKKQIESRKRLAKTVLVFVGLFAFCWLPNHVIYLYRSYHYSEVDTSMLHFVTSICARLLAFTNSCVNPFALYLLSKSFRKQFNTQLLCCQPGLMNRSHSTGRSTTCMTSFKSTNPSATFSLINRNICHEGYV
Experimental: To determine the in vivo GRPR-targeting efficacy of labeled peptides, biodistribution of female Balb/c mice were realized with a minimum of 4 mice for each condition. Briefly, mice were injected with 370 to 740 kBq (10 to 20 μCi; 100 μL) of either ^64Cu/NOTA-monomer, ^64Cu/NOTA-dimer 1 or ^64Cu/NOTA-dimer 2 via the caudal vein. The animals were sacrificed with CO2 at 30 min post-injection [p.i.]. Organs of interest were then collected, weighed and measured in a gamma counter. The results were expressed as percentage of the injected dose per gram of tissue [%ID/g].

[2] = Solubility in physiological media; format: physicochemical; conditions: 64Cu-labeled peptide; DMF-PBS (10/90 v/v) used to solubilize
Experimental: Our cyclotron facility provides ^64Cu isotope on a routine basis for research purposes using a target system developed in collaboration with Advanced Cyclotron Systems Inc. (ACSI, Richmond, British Columbia, Canada). ^64Cu was prepared on an EBCO TR-19 cyclotron (EBCO Technologies, Vancouver, Canada) by the ^64Ni(p, n)^64Cu nuclear reaction using an enriched ^64Ni target electroplated on a rhodium disk. [^64Cu]CuCl2 was recovered from the target following the procedure of McCarthy et al. and converted to [^64Cu]copper[II] acetate by dissolving the [^64Cu]CuCl2 in ammonium acetate (0.1 M; pH 5.5). Peptides were labeled with ^64Cu following conditions optimized in our laboratory. Briefly, peptides (5 μg) were dissolved in a 0.1 M ammonium acetate buffer at pH 5.5 with [^64Cu]Cu(OAc)2 (8 to 10 mCi, 296 to 370 MBq) in a total volume of 250 to 300 μL, and then, the resulting solution was incubated at 100°C for 10 min. The labeled product was purified by HPLC using a C-18 column and a radio-detector. The amount of radiolabeled peptide was determined by the peak area of the tracer in the UV-chromatogram compared to the UV peak area of the standard unlabelled peptide (Figure 3). […] The peptide fraction was collected, evaporated and counted in a Capintec radioisotope calibrator (Capintec, Inc., NJ, USA) to calculate the specific activity of the product.

GRPR [3] = molecular target: GRPR (Homo sapiens, UniProt P30550); test: Competitive binding assay with [125I-Tyr4]bombesin on PC3 cells; set-up: host or cells: PC3 cells (whole, adherent cells in 24-well plates); conditions: read-out: Ki (affinity for GRPR)
Sequence of GRPR (Homo sapiens, UniProt P30550) (P30550 whole entry): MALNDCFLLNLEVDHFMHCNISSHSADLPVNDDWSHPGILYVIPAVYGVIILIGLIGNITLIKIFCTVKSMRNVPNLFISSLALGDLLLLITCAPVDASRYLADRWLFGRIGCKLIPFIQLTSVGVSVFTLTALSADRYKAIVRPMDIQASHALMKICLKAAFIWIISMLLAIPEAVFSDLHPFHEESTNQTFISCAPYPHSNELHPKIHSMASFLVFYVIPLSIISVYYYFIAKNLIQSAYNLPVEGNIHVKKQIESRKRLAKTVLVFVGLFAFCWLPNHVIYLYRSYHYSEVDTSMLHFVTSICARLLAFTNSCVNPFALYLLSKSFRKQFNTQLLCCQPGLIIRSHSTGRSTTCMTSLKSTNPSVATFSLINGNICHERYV
Experimental: Competition assays were performed in 24-well plates using PC3 cells. The cells were cultured until near confluence, and the medium was replaced by 400 μL of reaction medium (RPMI complemented with 2 mg/mL BSA, 4.8 mg/mL HEPES, 1 U/mL penicillin G and 1 μg/mL streptomycin). For the assay, equal volumes of radioactive and non-radioactive ligands were added. […] The plates were incubated for 40 min at 37°C with agitation. After the incubation, the reaction medium was removed, and the cells were washed three times with PBS at room temperature. The cells were harvested and counted in a gamma counter (Cobra II auto-gamma counter, Packard, MN, USA). Experiments were realized three times in triplicate. Data were analyzed with GraphPad Prism 5 Software (GraphPad Software, San Diego, CA, USA) to determine the IC50. Finally, the Ki was determined using Cheng and Pursoff's formula [32].

SMILES	Pancreas uptake (GRPR [1]) [%ID/g]	Solubility in physiological media [2]	Ki (GRPR [3]) [nM]	Fold higher pancreas uptake than NOTA-monomer and NOTA-dimer 1 (GRPR [1]; Balb/c mice) [fold]
CCCC[C@H](NC(=O)[C@H](Cc1cccs1)NC(=O)[C@H](Cc1c[nH]cn1)NC(=O)CCNC(=O)[C@@H](NC(=O)[C@H](C)NC(=O)[C@H](Cc1c[nH]c2ccccc12)NC(=O)[C@H](CCC(N)=O)NC(=O)[C@@H](Cc1ccc(O)cc1)NC(=O)CCC(=O)NCCOCCOCC(=O)N[C@@H](CCCCNC(=O)CN1CCN(CC(=O)O)CCN(CC(=O)O)CC1)C(=O)NCC(=O)N[C@H](Cc1ccc(O)cc1)C(=O)N[C@@H](CCC(N)=O)C(=O)N[C@@H](Cc1c[nH]c2ccccc12)C(=O)N[C@@H](C)C(=O)N[C@H](C(=O)NCCC(=O)N[C@@H](Cc1c[nH]cn1)C(=O)N[C@@H](Cc1cccs1)C(=O)N[C@@H](CCCC)C(N)=O)C(C)C)C(C)C)C(N)=O [NOTA-dimer 1, BBN(6-14)-Suc-PEG-Lys(NOTA)-Gly-BBN(6-14)] (I: K(NOTA)G[dY]QWAV[βAla]H[2Thi][Nle]-NH2 / II: [dY]QWAV[βAla]H[2Thi][Nle]-NH2; linker I:N-II:N via X1)	15.6 ± 2.0	poorly soluble	2 ± 1.59	
CCCC[C@H](NC(=O)[C@H](Cc1cccs1)NC(=O)[C@H](Cc1c[nH]cn1)NC(=O)CCNC(=O)[C@@H](NC(=O)[C@H](C)NC(=O)[C@H](Cc1c[nH]c2ccccc12)NC(=O)[C@H](CCC(N)=O)NC(=O)[C@@H](Cc1ccc(O)cc1)NC(=O)CCC(=O)NCCOCCOCC(=O)N[C@@H](CCCCNC(=O)CN1CCN(CC(=O)O)CCN(CC(=O)O)CC1)C(=O)NCCOCCOCC(=O)NCC(=O)N[C@H](Cc1ccc(O)cc1)C(=O)N[C@@H](CCC(N)=O)C(=O)N[C@@H](Cc1c[nH]c2ccccc12)C(=O)N[C@@H](C)C(=O)N[C@H](C(=O)NCCC(=O)N[C@@H](Cc1c[nH]cn1)C(=O)N[C@@H](Cc1cccs1)C(=O)N[C@@H](CCCC)C(N)=O)C(C)C)C(C)C)C(N)=O [NOTA-dimer 2, BBN(6-14)-Suc-PEG-Lys(NOTA)-PEG-Gly-BBN(6-14)] (I: K(NOTA)[AEEA]G[dY]QWAV[βAla]H[2Thi][Nle]-NH2 / II: [dY]QWAV[βAla]H[2Thi][Nle]-NH2; linker I:N-II:N via X1)	57 ± 16	poorly soluble	1.76 ± 1.3	3.6
